From patent US20240166681A1, “3'3' CYCLIC DINUCLEOTIDES CONTAINING ISONUCLEOTIDIC UNITS” (INSTITUTE OF ORGANIC CHEMISTRY AND BIOCHEMISTRY AS CR, V. …, priority 2021, published 2024)

Tests used:
AQ STING (G230A-R293Q) = molecular target: T1, AQ STING (G230A-R293Q) (Homo sapiens, UniProt Q86WV6, G230A/H232R/R293Q); test: Differential scanning fluorimetry with AQ STING; format: binding; conditions: thermal shift, truncated human AQ STING 0.1 mg/ml, 150 μM CDN; for ΔTm at 150 µM: read-out: DSF ΔTm AQ STING
T1 construct: truncated human WT STING or AQ STING (amino acid residues 140-343); 8xHis (N, cleaved yes); SUMO (N, cleaved yes); made in house; host or cells: E. coli Rosetta-gami B (DE3)
Description: Both WT and AQ human STING (G230A-R293Q) cDNA were amplified by the use of PCR (Phusion® High-Fidelity DNA Polymerase, cat. #M0530S, NEB, Ipswich, USA) using oligonucleotides hSTING140-BamH-For ([…]) (SEQ ID NO:5) and hSTING379-Not-Rev3 ([…]) (SEQ ID NO:6) from pUNO1-hSTING-WT (cat. #puno1-hstingwt, InvivoGen, San Diego, USA) and pUNO1-hSTING-HAQ plasmids (punol-hsting-haq, InvivoGen, San Diego, USA). Purified PCR products were cleaved with restriction enzymes BamHI (cat. #R0136S, NEB, Ipswich, USA) and Notl (cat. #R0189S, NEB, Ipswich, USA) and cloned into the pSUMO vector linearized with the identical enzymes. Plasmid pSUMO was created by introducing 8-His-SUMO sequence between Ndel and BamHI sites of pHis-parallel2 plasmid (Clontech, Moutain View, USA). pSUMO-STING WT or pSUMO-STING AQ plasmids thus encoded truncated human WT STING or AQ STING (amino acid residues 140-343) with N-terminal 8xHis and SUMO tag.
The recombinant WT STING and AQ STING proteins were overexpressed in Rosetta-gami B (DE3) competent cells (cat. #71136-3, Merck Millipore, Billerica, USA). Bacterial pellets were re-suspended in ice-cold lysis buffer containing 50 mmol·l^−1 TrisCl (cat. #T1503, Sigma Aldrich, Czech Republic) pH 8.0, 300 mmol·l^−1 NaCl, 3 mmol·l^−1 β-mercaptoethanol (cat. #M6250, Sigma Aldrich, Czech Republic), 10% glycerol (cat. #G5516, Sigma Aldrich, Czech Republic) and 20 mmol·l^−1 imidazole (cat. #15513, Sigma Aldrich, Czech Republic) using Dounce homogenizer. DNase I (cat. #D5025, Sigma Aldrich, Czech Republic) and RNase A (cat. #R6513, Sigma Aldrich, Czech Republic) were added (final concentration 50 μg/ml) together with MgCl2 (final concentration 5 mmol·l^−1) to the homogenate and bacteria were lysed using French Press G-M™ High-Pressure Cell Press Homogenizer (1500 psi, 3 cycles). Lysate was spun 30,000 g for 20 minutes and supernatant was gently stirred with Ni-NTA resin (cat. #745400.25 Macherey-Nagel, Duren, Germany) for 30 minutes. The resin was poured into a chromatography column, washed with 50 ml buffer A (50 mmol·l^−1 TrisCl (pH 8.0), 800 mmol·l^−1 NaCl, 3 mmol·l^−1 (3-mercaptol; 10% glycerol; 20 mmol·l^−1 imidazole) and 8-His-SUMO tagged STING proteins were eluted with 15 ml buffer A containing 300 mmol·l^−1 imidazole. The eluted proteins were cleaved with recombinant SUMO protease (80 μg/ml of protein solution, cat. #12588018, ThermoFisher, Waltham, USA). The proteins were further purified by size exclusion chromatography using HiLoad 16/60 Superdex 75 (cat. #28989333, GE Healthcare Bio-Sciences, Pittsburgh, USA) in 50 mmol·l^−1 Tris Cl buffer pH 7.4 containing 150 mmol·l^−1 NaCl, and 10% glycerol. Proteins were concentrated with Amicon® Ultra-15 10 K device (cat. #UFC901008, Merck Millipore, Billerica, USA) and flash frozen in liquid N2.
WT and AQ allelic forms of STING protein were diluted to the final concentration 0.1 mg/ml in 100 mmol·l^−1 TrisCl buffer pH 7.4 containing, 150 mmol·l^−1 NaCl, 1:500 SYPRO Orange (cat. #S6650, ThermoFisher, Waltham, USA) and 150 μM CDN or water. 20 μL solutions of the reaction mixtures were pipetted in triplicates into 96 well optical reaction plates and thermal denaturation of samples were performed on real time PCR cycler (LightCycler® 480 Instrument II—Roche, Basel, Switzerland). The first derivative of the thermal denaturation curves was performed to calculate denaturing temperatures of STING—CDN complexes and STING apoproteins. The thermal shift for each CDN was calculated by subtracting the average denaturing temperature of STING apoprotein from the average denaturing temperature of STING CDN complex.

WT STING = WT STING (Homo sapiens, UniProt Q86WV6, H232R); test: 293T WT STING standard reporter assay; format: cell-based; design: host or cells: 293T (ATCC CRL-3216), stably transfected; conditions: 293T wtSTING-FL cells, no digitonin, 7 h incubation, luciferase reporter
Protocol: After 5 minutes incubation at room temperature (RT), 250 μL of the mixture was added dropwise to the cells in one well. Cells were incubated 36 hours at 37° C. with 5% CO2, and then detached with 0.05% Trypsin and 0.22 g/L EDTA (both cat. #L0941, Biowest, Riverside, USA).
Transfected cells were seeded onto poly-D-lysine coated six well plates at density 50,000 cells per 1 cm^2 in DMEM medium with high glucose containing 10% heat inactivated FBS, 30 μg/mL blasticidin (cat. #ant-b1-05, InvivoGen, San Diego, USA), 0.06 mg/ml Penicillin G and 0.1 mg/ml Streptomycin Sulfate (both cat. #. L0018, Biowest, Riverside, USA). The medium was replenished every 3-4 days until visible colonies of cells resistant to blasticidin were formed.
Blasticidin resistant cells stably expressing WT STING were further transfected with […] plasmid following the same procedure as described above. […] Homogeneous culture of stably double transfected cells was prepared by limiting dilution of cells in 96 well plates and wells with cells were selected that originated from a single cell.
The medium was removed next day and three-fold serial dilutions of compounds in 100 μl medium were added to the cells. The plates with cells were incubated for 7 hours at 37° C. with 5% CO2. After 50 μl of the medium was removed, 30 μl of ONE-Glo™ Luciferase Assay System reagent (cat. #E6120, Promega, Madison, USA) was added to each well and luminescence was read on Synergy H1 (Biotek, Winooski, USA). […] (cat. #tlrl-nacga23), and 2′2′-cGAMP (cat. #tlrl-nacga22) were purchased from Invivogen (San Diego, USA).

T1 sequence (Q86WV6 140-343 G230A/H232R/R293Q): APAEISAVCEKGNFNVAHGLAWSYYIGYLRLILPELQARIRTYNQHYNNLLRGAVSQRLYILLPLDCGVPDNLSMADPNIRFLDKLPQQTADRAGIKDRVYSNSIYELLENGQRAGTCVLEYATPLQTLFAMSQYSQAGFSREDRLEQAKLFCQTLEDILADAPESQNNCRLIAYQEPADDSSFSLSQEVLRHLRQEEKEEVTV
WT STING, sequence (Q86WV6 whole entry H232R): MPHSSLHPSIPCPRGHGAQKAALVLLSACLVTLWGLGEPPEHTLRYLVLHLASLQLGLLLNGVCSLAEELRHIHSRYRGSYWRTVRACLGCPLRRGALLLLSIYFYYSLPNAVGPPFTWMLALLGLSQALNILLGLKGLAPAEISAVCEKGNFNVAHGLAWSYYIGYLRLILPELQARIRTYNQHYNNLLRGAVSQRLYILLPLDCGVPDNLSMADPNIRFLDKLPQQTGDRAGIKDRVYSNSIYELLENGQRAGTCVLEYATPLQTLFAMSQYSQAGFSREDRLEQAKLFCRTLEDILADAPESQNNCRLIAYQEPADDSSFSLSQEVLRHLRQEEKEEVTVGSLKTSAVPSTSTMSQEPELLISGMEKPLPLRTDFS

Row | SMILES | ΔTm at 150 µM (AQ STING (G230A-R293Q)) [°C] | EC50 (WT STING) [nM] | DSF ΔTm AQ STING (AQ STING (G230A-R293Q)) [°C]
1 | Nc1nc2c(ncn2[C@@H]2O[C@@H]3COP(=O)(O)O[C@H]4[C@H](n5cnc6c(N)ncnc65)CO[C@@H]4COP(=O)(O)O[C@H]3[C@H]2F)c(=O)[nH]1 [Compound 24, (1S,6R,8R,9R,10R,15R,18R)-8-(2-amino-6-oxo-6,9-dihydro-1H-purin-9-yl)-18-(6-amino-9H-purin-9-yl)-9-fluoro-3,12-dihydroxy-2,4,7,11,13,16-hexaoxa-3λ^5,12λ^5-diphosphatricyclo[13.3.0.0^6,10]octadecane-3,12-dione] | 16.9 | – | –
2 | Nc1ncnc2c1ncn2[C@@H]1CO[C@@H]2COP(=O)(O)O[C@H]3[C@@H](F)[C@H](n4cnc5c(N)ncnc54)O[C@@H]3COP(=O)(O)O[C@@H]12 [Compound 28, (1S,6R,8R,9R,10R,15R,18R)-8,18-bis(6-amino-9H-purin-9-yl)-9-fluoro-3,12-dihydroxy-2,4,7,11,13,16-hexaoxa-3λ^5,12λ^5-diphosphatricyclo[13.3.0.0^6,10]octadecane-3,12-dione] | 13.3 | – | –
3 | Nc1ncnc2c1ncn2[C@@H]1CC[C@@H]2COP(=O)(O)O[C@H]3[C@@H](F)[C@H](n4cnc5c(N)ncnc54)O[C@@H]3COP(=O)(O)O[C@H]21 [Compound 34, (1R,6R,8R,9R,10R,15R,18R)-8,18-bis(6-amino-9H-purin-9-yl)-9-fluoro-3,12-dihydroxy-2,4,7,11,13-pentaoxa-3λ^5,12λ^5-diphosphatricyclo[13.3.0.0^6,10]octadecane-3,12-dione] | 9.2 | – | –
4 | Nc1ncnc2c1ncn2[C@@H]1CO[C@@H]2COP(=O)(O)O[C@H]3C[C@H](n4cnc5c(N)ncnc54)O[C@@H]3COP(=O)(O)O[C@@H]12 [Compound 50, (1S,6R,8R,10S,15R,18R)-8,18-bis(6-amino-9H-purin-9-yl)-3,12-dihydroxy-2,4,7,11,13,16-hexaoxa-3λ^5,12λ^5-diphosphatricyclo[13.3.0.0^6,10]octadecane-3,12-dione] | 9.3 | – | –
5 | Nc1nc2c(ncn2[C@@H]2CO[C@@H]3COP(=O)(O)O[C@H]4[C@@H](F)[C@H](n5cnc6c(N)ncnc65)O[C@@H]4COP(=O)(O)O[C@@H]23)c(=O)[nH]1 [Compound 51, (1S,6R,8R,9R,10R,15R,18R)-18-(2-amino-6-oxo-6,9-dihydro-1H-purin-9-yl)-8-(6-amino-9H-purin-9-yl)-9-fluoro-3,12-dihydroxy-2,4,7,11,13,16-hexaoxa-3λ^5,12λ^5-diphosphatricyclo[13.3.0.0^6,10]octadecane-3,12-dione] | 15.8 | – | –
6 | Nc1nc2c(ncn2[C@@H]2CO[C@@H]3COP(=O)(O)O[C@H]4[C@H](n5cnc6c(N)ncnc65)CO[C@@H]4COP(=O)(O)O[C@@H]23)c(=O)[nH]1 [Compound 52, (1S,6R,9R,10S,15R,18R)-9-(2-amino-6-oxo-6,9-dihydro-1H-purin-9-yl)-18-(6-amino-9H-purin-9-yl)-3,12-dihydroxy-2,4,7,11,13,16-hexaoxa-3λ^5,12λ^5-diphosphatricyclo[13.3.0.0^6,10]octadecane-3,12-dione] | 10.7 | – | –
7 | Nc1nc2c(ncn2[C@@H]2CO[C@@H]3COP(=O)(O)O[C@H]4C[C@H](n5cnc6c(N)ncnc65)O[C@@H]4COP(=O)(O)O[C@@H]23)c(=O)[nH]1 [Compound 53, (1S,6R,8R,10S,15R,18R)-18-(2-amino-6-oxo-6,9-dihydro-1H-purin-9-yl)-8-(6-amino-9H-purin-9-yl)-3,12-dihydroxy-2,4,7,11,13,16-hexaoxa-3λ^5,12λ^5-diphosphatricyclo[13.3.0.0^6,10]octadecane-3,12-dione] | 11.5 | – | –
8 | Nc1ncnc2c1ncn2[C@@H]1CO[C@@H]2COP(=O)(S)O[C@H]3[C@@H](F)[C@H](n4cnc5c(N)ncnc54)O[C@@H]3COP(=O)(S)O[C@@H]12 (stereo partly drawn) [Compound 54, (1S,6R,8R,9R,10R,15R,18R)-8,18-bis(6-amino-9H-purin-9-yl)-9-fluoro-3,12-disulfanyl-2,4,7,11,13,16-hexaoxa-3λ^5,12λ^5-diphosphatricyclo[13.3.0.0^6,10]octadecane-3,12-dione] | 17.2 | 156 | –
9 | Nc1ncnc2c1ncn2[C@@H]1CO[C@@H]2COP(=O)(S)O[C@H]3[C@@H](F)[C@H](n4cnc5c(N)ncnc54)O[C@@H]3COP(=O)(S)O[C@@H]12 (stereo partly drawn) [Compound 55, (1S,6R,8R,9R,10R,15R,18R)-8,18-bis(6-amino-9H-purin-9-yl)-9-fluoro-3,12-disulfanyl-2,4,7,11,13,16-hexaoxa-3λ^5,12λ^5-diphosphatricyclo[13.3.0.0^6,10]octadecane-3,12-dione] | – | 340 | 20.0
